{"source": "patent US8410068B2", "about": "“Compounds for the treatment or alleviation of edema, and methods for their use” (Index Pharmaceuticals AB, priority 2007, dated 2013)", "tested_on": "OVA induced airway inflammation", "test": "Ovalbumin (OVA) induced allergic airway inflammation, BAL fluid cell counts", "type": "in vivo, Balb/c mice", "experimental": "Mice were sensitized intraperitoneally with 200 μL OVA/aluminium hydroxide gel (1:3) on day 0 and 12 (see FIG. 6). OVA (chicken egg albumin grade V, Sigma, St. Louis, Mo.) was dissolved in saline and mixed with aluminium hydroxide gel to a concentration of 50 μg/mL by rotation at 4° C. for 3 h. On days 23, 26, 30 and 33 (see FIG. 6), mice were challenged in the lungs by inhalation of aerosolized OVA for 30 minutes using a Batelle exposure chamber. Aerosols were generated by a compressed-air nebulizer (Collison 6-jet) at airflow 7.4 L/min using a nebulizer concentration of 10 mg/mL OVA dissolved in PBS (Sigma, St Louis, Mo., USA). The control group with non-sensitized animals received no other treatment than aerosolized OVA at days 23, 26, 30 and 33.\nIn this OVA model (FIG. 6), a total of 4 oligonucleotides were tested, IDX9025, IDX9038, IDX9053 (Table 1, SEQ ID NO 2-4) and IDX0150 (Table 3, SEQ ID NO 11). The oligonucleotides were synthesized by biomers.net GmbH, Ulm, Germany and stored frozen at −20° C. The oligonucleotides were diluted with PBS to the working concentration (1,247 μg/μL) and kept at −20° C. until the first day of instillation, thereafter they were placed at 4° C.\nIn a first experiment, both prophylactic and therapeutic protocols were tested (see FIG. 6). The drug treatment consisted of intranasal instillations of IDX0150 (1,247 μg/μL, provided by InDex Pharmaceuticals AB, Stockholm, Sweden) on days 16 and 21 (prophylactic protocol), on days 30 and 33 (therapeutic protocol A) or on days 30 and 34 (therapeutic protocol B). The instillations in the therapeutic protocols (A & B) on days 30 and 33 were given 4 h after aerosol challenge. The second instillation in protocol B on day 34 was given 24 h after the last aerosol challenge. The drug was administered in 40 μL PBS giving a dose of ˜50 μg/mice (49.88 μg/mice). The two sensitized sham-treatment groups were instilled with PBS, the same total volume as for the treatment groups, according to either the prophylactic protocol (days 16 and 21) or to the therapeutic protocol A (days 30 and 33).\nIn a second experiment, since administration of IDX0150 in the first experiment using prophylactic protocol (FIG. 6) gave a significant reduction of airway inflammation (FIG. 7), three other substances were tested with the same protocol. The drug treatment consisted of intranasal instillations of IDX9025, IDX9038 and IDX9053 (Table 1) (1,247 μg/μL, provided by InDex Pharmaceuticals AB) on days 16 and 21 (see FIG. 6, prophylactic protocol). All substances were administered in 40 μL PBS giving a dose of ˜50 μg/mice (49.88 μg/mice). The two sensitized sham-treatment groups were instilled with PBS, the same total volume as for the treatment groups, according to the prophylactic protocol (days 16 and 21).\nMice were killed by cervical dislocation 42 h after the last OVA aerosol challenge. The trachea was cannulated with polyethylene tubing (Becton Dickinson, Sparks, Md., USA) and bronchoalveolar lavage (BAL) was performed using 4×1 mL aliquots of ice-cold Hank's balanced salt solution (HBSS) (Sigma, St Louis, Mo., USA). The BAL fluid was centrifuged (400 g, 10 min, 4° C.) and the BAL fluid cells were resuspended in 0.4 mL PBS. The total number of leukocytes counted using tryphan blue exclusion in a Barker chamber. Duplicate Cytospin (Cytospin 3, Shandon, Runcorn, UK) preparations of BAL fluid cells were stained with May Grünewald Giemsa for differential counts, using standard morphological criteria.\nStatistical comparisons were performed using One-way analysis of variance (ANOVA) using Dunnett's post hoc correction to compare with sensitized PBS treated control mice (GraphPad Prism 3). Data are shown as mean±standard deviation. P<0.05 was considered significant."}
{"substance": "G*G*A*ACAGTTCGTCCAT*G*G*C (phosphorothioate linkages, as printed in the source, key not given here) [IDX0150, oligonucleotide used as control; * = phosphorothioate modification]", "values": [{"measurement": "migration of eosinophils into the BAL fluid", "setting": "prophylactic protocol, 50 μg/animal intranasal on day 16 and 21, P<0.001", "value": "significantly reduce"}, {"measurement": "migration of leukocytes into the BAL fluid", "setting": "prophylactic protocol, 50 μg/animal intranasal on day 16 and 21, P<0.05", "value": "significantly reduce"}, {"measurement": "effect on BAL fluid cells, therapeutic arm", "setting": "therapeutic protocols, 50 μg intranasal, days 30 and 33 (A) or 30 and 34 (B)", "value": "no statistically proven effects"}]}
